These results are taken from PMC2815200 (Biochemical pharmacology, 2009).

Experiment [1] concerns the target T1, human A3AR (Homo sapiens, UniProt P0DMS8).
T1 sequence (P0DMS8 1-318): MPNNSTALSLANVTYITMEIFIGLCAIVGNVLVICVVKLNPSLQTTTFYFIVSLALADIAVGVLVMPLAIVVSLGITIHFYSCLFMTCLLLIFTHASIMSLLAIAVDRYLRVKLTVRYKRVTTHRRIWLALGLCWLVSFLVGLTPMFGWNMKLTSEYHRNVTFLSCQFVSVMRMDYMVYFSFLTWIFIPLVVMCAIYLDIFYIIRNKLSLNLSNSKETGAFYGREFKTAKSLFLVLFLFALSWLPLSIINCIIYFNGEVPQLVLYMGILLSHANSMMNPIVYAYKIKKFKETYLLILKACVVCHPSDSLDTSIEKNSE
It counts as binding. As to conditions: [^125I]MRS5127 0.2 nM, 2 h room temperature, Cheng-Prusoff.

In experiment [2] the target is T2, mouse A3AR (Mus musculus, UniProt Q61618).
T2 sequence (Q61618 1-319): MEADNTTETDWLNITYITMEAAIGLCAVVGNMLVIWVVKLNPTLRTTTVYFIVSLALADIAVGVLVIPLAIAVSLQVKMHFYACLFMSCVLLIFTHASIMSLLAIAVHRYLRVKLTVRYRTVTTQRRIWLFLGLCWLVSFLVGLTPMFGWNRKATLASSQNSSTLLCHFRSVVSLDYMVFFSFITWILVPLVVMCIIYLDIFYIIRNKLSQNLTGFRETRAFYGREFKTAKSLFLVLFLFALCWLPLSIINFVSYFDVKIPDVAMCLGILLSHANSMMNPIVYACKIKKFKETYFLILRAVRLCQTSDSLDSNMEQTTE
Kind of experiment: cAMP accumulation assay, HEK 293 cells expressing mouse A3AR. As to conditions: forskolin 10 μM, 15 min, Ro 20-1724 20 μM. It counts as cell-based. (In general: Cyclic AMP is a second messenger, typically raised through Gs and lowered through Gi signalling.)

Experiment [3] deals with T3, rabbit A3AR (Oryctolagus cuniculus, UniProt O02667).
T3 sequence (O02667 1-319): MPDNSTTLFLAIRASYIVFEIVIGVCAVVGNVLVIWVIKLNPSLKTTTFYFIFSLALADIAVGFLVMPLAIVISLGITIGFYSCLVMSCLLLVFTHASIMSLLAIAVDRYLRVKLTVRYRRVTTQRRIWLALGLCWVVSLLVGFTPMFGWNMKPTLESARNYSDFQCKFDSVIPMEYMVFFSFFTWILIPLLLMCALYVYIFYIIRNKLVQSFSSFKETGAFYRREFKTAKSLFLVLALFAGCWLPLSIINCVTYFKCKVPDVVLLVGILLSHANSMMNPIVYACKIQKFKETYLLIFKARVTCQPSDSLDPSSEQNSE
Kind of experiment: cAMP accumulation assay, HEK 293 cells expressing rabbit A3AR. It counts as cell-based. As to conditions: forskolin 10 μM, 15 min, Ro 20-1724 20 μM.

Experiment [4] has as its target T4, dog A3AR (Canis lupus familiaris, UniProt Q28309).
T4 sequence (Q28309 1-314): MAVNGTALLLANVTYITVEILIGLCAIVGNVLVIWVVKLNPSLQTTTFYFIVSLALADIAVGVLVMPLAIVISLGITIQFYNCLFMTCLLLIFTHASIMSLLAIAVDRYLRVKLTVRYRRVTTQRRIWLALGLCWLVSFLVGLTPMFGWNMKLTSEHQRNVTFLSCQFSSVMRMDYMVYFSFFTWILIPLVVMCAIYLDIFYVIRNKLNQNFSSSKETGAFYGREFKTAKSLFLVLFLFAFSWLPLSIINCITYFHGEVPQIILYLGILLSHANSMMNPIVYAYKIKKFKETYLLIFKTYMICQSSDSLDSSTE
Description: cAMP accumulation assay, HEK 293 cells expressing dog A3AR. The note with it: forskolin 10 μM, 15 min, Ro 20-1724 20 μM. It counts as cell-based.

Experiment [5] has as its system hA3AR. As to conditions: cited from earlier work.
Experiment [6] has as its target hA3. As to conditions: read-out: affinity; hA3 ref 25, 26; cited from earlier work.
Experiment [7] concerns hA3AR. As to conditions: CHO cell membranes expressing hA3AR ref 25; cited from earlier work.
Experiment [8] concerns the target T5, mouse A2BAR (Mus musculus, UniProt Q60614).
T5 sequence (Q60614 1-332): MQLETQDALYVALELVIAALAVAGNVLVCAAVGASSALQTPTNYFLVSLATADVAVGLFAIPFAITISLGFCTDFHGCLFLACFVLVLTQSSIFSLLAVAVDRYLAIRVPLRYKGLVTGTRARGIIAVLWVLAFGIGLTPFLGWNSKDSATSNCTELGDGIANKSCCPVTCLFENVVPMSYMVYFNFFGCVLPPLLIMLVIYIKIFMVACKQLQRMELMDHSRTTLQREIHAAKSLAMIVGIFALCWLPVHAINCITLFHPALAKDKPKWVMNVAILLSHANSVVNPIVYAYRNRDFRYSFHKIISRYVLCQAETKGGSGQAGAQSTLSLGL
Description: Competition binding of MRS5127 at mouse A2BAR. The note with it: [^3H]MRS1754 2 nM, HEK 293 membranes.

The target of experiment [9] is mouse A2AAR (Mus musculus, UniProt Q60613). Description: Competition binding of MRS5127 at mouse A2AAR. As to conditions: [^3H]CGS21680 10 nM, HEK 293 membranes.
Experiment [10] deals with T6, mA1AR (Mus musculus, UniProt Q60612).
T6 sequence (Q60612 1-326): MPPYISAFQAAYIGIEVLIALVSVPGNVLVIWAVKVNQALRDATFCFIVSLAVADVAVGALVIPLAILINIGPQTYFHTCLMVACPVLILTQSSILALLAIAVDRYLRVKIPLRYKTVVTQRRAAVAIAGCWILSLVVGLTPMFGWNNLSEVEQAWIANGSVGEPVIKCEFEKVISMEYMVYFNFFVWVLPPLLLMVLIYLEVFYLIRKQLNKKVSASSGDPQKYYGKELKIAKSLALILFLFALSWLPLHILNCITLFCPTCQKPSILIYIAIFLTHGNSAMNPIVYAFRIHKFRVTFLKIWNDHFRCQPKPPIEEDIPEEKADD
Description: Competition binding of MRS5127 at mouse A1AR.

For orientation: EC50 means the concentration needed to bring the measured effect to its halfway point. A lower EC50 goes with higher potency in that assay.

Chain of mouse A2AAR (Q60613 whole entry): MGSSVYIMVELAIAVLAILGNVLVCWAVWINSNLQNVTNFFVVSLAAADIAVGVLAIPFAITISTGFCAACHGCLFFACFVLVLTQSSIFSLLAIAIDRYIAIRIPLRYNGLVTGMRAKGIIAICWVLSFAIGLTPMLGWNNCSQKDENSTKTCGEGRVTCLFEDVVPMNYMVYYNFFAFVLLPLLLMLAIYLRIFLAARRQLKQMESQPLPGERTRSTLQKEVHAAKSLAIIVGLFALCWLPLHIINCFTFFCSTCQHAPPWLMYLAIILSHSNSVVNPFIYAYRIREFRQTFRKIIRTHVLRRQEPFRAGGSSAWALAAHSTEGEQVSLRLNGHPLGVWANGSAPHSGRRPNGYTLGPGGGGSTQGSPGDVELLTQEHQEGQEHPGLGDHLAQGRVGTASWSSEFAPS

In turn, `CCCOC(=O)c1c(-c2ccccc2)nc(CC)c(C(=O)SCC)c1CCC` [MRS1523, 5-propyl-2-ethyl-4-propyl-3-(ethylsulfanylcarbonyl)-6-phenylpyridine-5-carboxylate] yielded a Ki in [1] of 246 ± 66 nM.

For `O[C@@H]1[C@H](O)[C@@H]2C[C@@H]2[C@H]1n1cnc2c(NCc3cccc(I)c3)nc(Cl)nc21` [MRS5127, (1′R,2′R,3′S,4′R,5′S)-4′-[2-chloro-6-(3-iodobenzylamino)-purine]-2′,3′-O-dihydroxybicyclo-[3.1.0]hexane], the results for the EC50 in experiment [2], in [3] and in experiment [4] were 1.34 ± 0.07 nM, 1.53 ± 0.59 nM and 2.79 ± 0.41 nM, respectively. Also, the “efficacy in comparison to NECA” value in [5] (cAMP accumulation, human receptors ref 26) is “roughly half efficacy”. For the same compound, the “efficacy compared to the full agonist NECA” value in [5] (cAMP, transfected cells ref 26) is 45%. The Ki is 1.44 ± 0.6 nM in experiment [6] and 140 ± 26 nM in [10] (read-out: affinity (Ki value), [^125I]I-AB-MECA 0.3 nM, HEK 293 membranes). For the same compound, in [7], the “functional character by Schild analysis of [^35S]GTPγS binding” value is given as “antagonist”. Moreover, in [8], the “binding to mouse A2BAR” value is given as “did not bind”. For the same compound, the “binding to mouse A2AAR” value in experiment [9] is listed as “did not bind”. Besides, the “affinity for mA1AR lower compared to the mA3AR” value in [10] (mA1AR versus mA3AR) is listed as ~ 30 fold.
